Tested on: PDX1-BIRC5-Survivin axis

Compound: CCC(C)(C)C(=O)OC1CC(C)C=C2C=CC(C)C(CCC(O)CC(O)CC(=O)NO)C21 (stereo not shown) [Sim-CONHOH, Simvastatin-NHOH]
- activity in the PDX1-BIRC5-Survivin bioassays: active
